# From patent US11844790B2, “Methods of treating hidradenitis suppurativa” (CHEMOCENTRYX, INC., priority 2020, dated 2023)
# Marks after values point to notes of the source that are not given here.
# Columns and labels:
# [1] = system: patients with moderate HS (Hurley Stage II) or severe HS (Hurley Stage III); experiment: Phase II AURORA clinical trial, Hidradenitis Suppurativa Clinical Response (HiSCR) and secondary efficacy endpoints; format: in vivo, human; conditions: for HiSCR (%) / HiSCR n/N / HiSCR Δ % vs placebo: week 12
# Protocol: (§1) The study is a randomized, double-blind, placebo-controlled, three group Phase 2 trial in approximately 390 subjects with moderate to severe hidradenitis suppurativa (Hurley stage II or III). Subjects will be randomized 1:1:1 to a treatment of 10 mg Avacopan twice daily, 30 mg Avacopan twice daily or placebo for 12 weeks. Other systemic treatments for HS including anti-TNF-αtreatments are prohibited. Stable antibiotic therapy with doxycycline or minocycline is allowed as specified in the protocol. Subjects treated with 10 mg or 30 mg twice daily during the blinded, placebo-controlled 12-week treatment period will be followed by an additional 24-week, active treatment period during which they will continue to receive the same dose regimen, either 10 mg or 30 mg Avacopan twice daily. Subjects on placebo who complete the blinded, placebo-controlled 12-week period will be re-randomized 1:1 to receive 10 mg or 30 mg Avacopan twice daily during the 24-week active treatment period. During the 24-week active treatment period the treatment assignment to 10 mg or 30 mg twice daily will not be disclosed to the patient, study personnel at the site or the sponsor. Thereafter, all subjects will be followed without study drug for 8 weeks before they exit the study.
# Subjects will be randomized 1:1:1 to receive 10 mg Avacopan twice daily, 30 mg Avacopan twice daily or matching placebo for 12 weeks in a double-blind, placebo-controlled manner.
# (§2) The primary objectives of this clinical trial include: • 1. Evaluation of the efficacy of Avacopan compared to placebo in subjects with Hurley Stage II or III hidradenitis suppurativa (HS) based on subjects achieving a Hidradenitis Suppurativa Clinical Response (HiSCR) after 12 weeks of treatment. HiSCR is defined as at least a 50% reduction in abscess and inflammatory nodule (AN) count with no increase in abscess count and no increase in draining fistula count at Week 12 relative to baseline. • 2. Evaluation of the safety of Avacopan compared to placebo in these subjects based on the adverse event incidence, changes from baseline in laboratory parameters, and vital signs Secondary Objectives
# The secondary objectives of this study include: • 1. Evaluation of the efficacy of Avacopan compared to placebo in these subjects include: • a. HiSCR: proportion of subjects achieving HiSCR by each timepoint, • b. The subject's global assessment of skin pain numeric rating scale (NRS), • c. The modified Sartorius score, and • d. Achieving an AN count of 0, 1, or 2 • 2. Assessment of subject reported outcomes including health-related quality-of-life changes based on the Short Form-36 version 2 (SF-36 v2), the EuroQOL-5D-5L (EQ-5D-5L), Hidradenitis Suppurativa Quality of Life (HiSQOL) Index, the Dermatology Life Quality Index (DLQI), and the Work Productivity and Activity Impairment Questionnaire: Specific Health Problem (WPAI: SHP) with Avacopan compared to placebo. • 3. Evaluation of the pharmacokinetic profile of Avacopan in subjects with HS. • 4. Evaluation of the safety and efficacy of Avacopan treatment from Day 1 by each timepoint up to Week 44 in subjects with HS. • 5. Evaluation of the efficacy of avacopan compared to placebo in these subjects include: • a. The Sartorius score, International HS Severity Scoring System (IHS4) score, HS Physician Global Assessment (HS-PGA), • b. Proportion of subjects who experienced flare, who experienced loss of response during Period 2, who received oral antibiotic rescue therapy or lesion intervention, and who received disallowed opioid pain therapy, and • c. The duration of flare in days. • 6. Evaluation of health-economic information. Study Treatments
# The International Hidradenitis Suppurativa Severity Score (IHS4) is simple to calculate and validated with the use of existing physician-derived outcomes such as HS-PGA, Hurley classification, MSS or Expert Opinion classification) and patient-reported outcome measure (DLQI). […]
# [2] = system: patients with moderate-to-severe HS; conditions: human, in vivo
# Protocol: as §1, §2
# The majority of TEAEs were related to underlying HS and were mild to moderate.
# [3] = Solubility of Avacopan as a function of pH; format: physicochemical; conditions: pH value of 3 or above (gastric fluid)
# [4] = Avacopan 10 mg BID, All patients
# [5] = Avacopan 10 mg BID, Hurley Stage II
# [6] = Avacopan 10 mg BID, Hurley Stage III
# [7] = Avacopan 30 mg BID, All patients
# [8] = Avacopan 30 mg BID, Hurley Stage II
# [9] = Avacopan 30 mg BID, Hurley Stage III
compound,measurement,setting,value
Cc1ccc(NC(=O)[C@H]2CCCN(C(=O)c3c(C)cccc3F)[C@H]2c2ccc(NC3CCCC3)cc2)cc1C(F)(F)F [Avacopan],primary endpoint: proportion of all patients achieving HiSCR against placebo,"[1]; 10 mg BID and 30 mg BID, combined study population (Hurley Stage II plus III), after 12 weeks",not achieved with statistical significance at either dose level
same,proportion of all patients achieving HiSCR against placebo,"[1]; 30 mg BID, combined study population, after 12 weeks",numerical improvement
same,HiSCR response against placebo,"[1]; 30 mg BID, pre-specified population of Hurley Stage III (severe) HS patients",statistically significant higher response than placebo
same,HiSCR (%),[1]; [4],(22.4) %
same,HiSCR n/N,[1]; [4],30/134
same,HiSCR Δ % vs placebo,[1]; [4],−8.2%
same,HiSCR (%),[1]; [5],(21.4) %
same,HiSCR n/N,[1]; [5],18/84
same,HiSCR Δ % vs placebo,[1]; [5],−13.8%
same,HiSCR (%),[1]; [6],(24.0) %
same,HiSCR n/N,[1]; [6],12/50
same,HiSCR Δ % vs placebo,[1]; [6],1.8%
same,HiSCR (%),[1]; [7],(35.1) %
same,HiSCR n/N,[1]; [7],47/134
same,HiSCR Δ % vs placebo,[1]; [7],4.4%
same,HiSCR (%),[1]; [8],(31.0) %
same,HiSCR n/N,[1]; [8],27/87
same,HiSCR Δ % vs placebo,[1]; [8],−4.3%
same,HiSCR (%),[1]; [9],(42.6) %
same,HiSCR n/N,[1]; [9],20/47
same,HiSCR Δ % vs placebo,"[1]; Avacopan 30 mg BID, Hurley Stage III, p = 0.0349",20.3* %
same,"AN (abscesses and inflammatory nodules) count, % change from baseline to week 12 relative to placebo",[1]; Hurley Stage III patients,Favorable reductions
same,"International HS Severity Score (IHS4), % change from baseline to week 12 relative to placebo",[1]; Hurley Stage III patients,Favorable reductions
same,"abscess count, % change from baseline to week 12 relative to placebo",[1]; Hurley Stage III patients,Favorable reductions
same,"draining fistula count, % change from baseline to week 12 relative to placebo",[1]; Hurley Stage III patients,Favorable reductions
same,safety profile,[2],favorable safety profile
same,Serious TEAEs,[2]; 12 weeks,1.5%
same,Treatment emergent adverse events (TEAEs) of all types,[2]; 12 weeks,48.5%
same,solubility,[3],normally insoluble
